Assay results taken from patent US11078198B2 (BRISTOL-MYERS SQUIBB COMPANY, priority 2017, dated 2021).

Biological target: T1, human FXR (Homo sapiens, UniProt Q96RI1)
T1 construct: expressed in transfected cells; host or cells: HEK293 cells stably carrying a 5xGal4-response-element firefly luciferase reporter, transiently transfected with pcDNA3.1-Gal4-FXR
T1 sequence (Q96RI1 262-486 limits assumed): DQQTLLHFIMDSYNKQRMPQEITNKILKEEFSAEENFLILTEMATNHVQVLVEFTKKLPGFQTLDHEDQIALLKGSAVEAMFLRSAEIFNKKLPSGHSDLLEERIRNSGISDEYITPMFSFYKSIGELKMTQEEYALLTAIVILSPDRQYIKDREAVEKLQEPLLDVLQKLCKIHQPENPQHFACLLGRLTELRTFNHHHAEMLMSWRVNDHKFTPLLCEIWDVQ
Assay: transient human FXR/Gal4-luciferase reporter assay
Type: cell-based
Settings: Gal4-hFXR transfected HEK293 reporter cells; relative to 8 μM GW-4064
Method: A Gal4-hFXR fusion construct reporter system was used as the primary assay to characterize compound activity. A construct including 5 copies of the Gal4 promoter response element upstream of a firefly luciferase reporter cDNA was stably expressed in HEK293 cells. This reporter cell line was maintained in Dulbecco's Modified Eagle's medium (DMEM; Gibco) supplemented with 1% penicillin-streptomycin (P/S) solution, 500 μg/mL Zeocin and 10% charcoal/dextran-treated fetal bovine serum (cs-FBS) at 37° C. in a humidified 5% CO2 atmosphere. Another plasmid was constructed in which the human cytomegalovirus promoter in the pcDNA3.1 vector directs the expression of the cDNA encoding a fusion protein comprised of the DNA binding domain from the Gal4 transcription factor fused to the ligand binding domain from human FXR.
The day prior to transfection, the reporter cells in culture are detached from the plate with trypsin and plated into a T75 flask at a sufficient density to achieve approximately 90% confluence the next morning. The transfection reagents are prepared by separately diluting 25 μg of the pcDNA3.1-Gal4-FXR plasmid into 1.87 mL of Opti-MEM (Thermo-Fisher), and 40 μL of Lipofectamine 2000 (Thermo-Fisher) into 1.87 mL of Opti-MEM, and then adding the diluted DNA solution into the diluted Lipofectamine 2000 solution and incubating at room temperature for 15-20 minutes. The mixture is further diluted with 10 mL of a solution comprised of DMEM, 10% cs-FBS, and 1% P/S immediately prior to transferring to the cells. The maintenance culture media is aspirated from the cells and the final transfection mixture is added before the cells are incubated overnight at 37° C. in a humidified 5% CO2 atmosphere. This protocol can be scaled up, and the transiently transfected cells can be cryopreserved in an assay-ready format.
For compound testing, 100 nL of the compounds (serial dilutions in DMSO) are dispensed with an Echo acoustic dispenser (Labcyte) into the wells of a Corning/Costar clear bottom 384-well white plate. The transfected cells are harvested, counted, and diluted such that 10-25,000 cells in 25 μL are plated into each well of the 384-well compound assay plate. The compound-treated cells are incubated overnight at 37° C. in a humidified 5% CO2 atmosphere.

Row | Structure (SMILES) | EC50
1 | O=C(O)c1cc(OC(F)F)c2cc(N3CCC4(C=C(c5c(-c6ccncc6Cl)noc5C5CC5)C4)CC3)ccc2n1 [Example 74, 6-(2-(3-(3-Chloropyridin-4-yl)-5-cyclopropylisoxazol-4-yl)-7-azaspiro[3.5]non-1-en-7-yl)-4-(difluoromethoxy)quinoline-2-carboxylic acid] | 38 nM
2 | O=C(O)c1ccc(N2CC3(C=C(c4c(-c5ccccc5C(F)(F)F)noc4C4CC4)C3)C2)nc1 [Example 35, 6-(6-(5-cyclopropyl-3-(2-(trifluoromethyl)phenyl)isoxazol-4-yl)-2-azaspiro[3.3]hept-5-en-2-yl)nicotinic acid] | 4300 nM
3 | O=C(O)c1ccn2nc(N3CCC4(C=C(c5c(-c6c(Cl)cccc6Cl)noc5C5CC5)C4)CC3)ncc12 [Example 123, 2-(2-(5-Cyclopropyl-3-(2,6-dichlorophenyl)isoxazol-4-yl)-7-azaspiro[3.5]non-1-en-7-yl)pyrrolo[2,1-f][1,2,4]triazine-5-carboxylic acid] | 40 nM
4 | O=C(O)c1cc(F)c2nc(N3[C@@H]4CC[C@H]3CC3(COC(c5c(-c6c(Cl)cccc6Cl)noc5C5CC5)O3)C4)sc2c1 (stereo partly drawn) [Example 41, 2-((1R,5S)-2′-(5-cyclopropyl-3-(2,6-dichlorophenyl)isoxazol-4-yl)-8-azaspiro[bicyclo[3.2.1]octane-3,4′-[1,3]dioxolan]-8-yl)-4-fluorobenzo[d]thiazole-6-carboxylic acid] | 1700 nM
5 | O=C(O)c1cc(F)c2nc(N3CC4(C=C(c5c(-c6ccccc6C(F)(F)F)noc5C5CC5)C4)C3)sc2c1 [Example 34, 2-(6-(5-cyclopropyl-3-(2-(trifluoromethyl)phenyl)isoxazol-4-yl)-2-azaspiro[3.3]hept-5-en-2-yl)-4-fluorobenzo[d]thiazole-6-carboxylic acid] | 400 nM
6 | Cn1c(C(=O)O)cc2cc(N3CCC4(C=C(c5c(-c6ccccc6OC(F)(F)F)noc5C5CC5)C4)CC3)ncc21 [Example 172, 5-(2-(5-Cyclopropyl-3-(2-(trifluoromethoxy)phenyl)isoxazol-4-yl)-7-azaspiro[3.5]non-1-en-7-yl)-1-methyl-1H-pyrrolo[2,3-c]pyridine-2-carboxylic acid] | 2370 nM
7 | O=C(O)c1cccc(COC2CCC3(CC2)CC(O)(c2c(-c4c(Cl)cccc4Cl)noc2C2CC2)C3)c1 (centres unmarked) [Example 206, 3-(((2-(5-Cyclopropyl-3-(2,6-dichlorophenyl)isoxazol-4-yl)-2-hydroxyspiro[3.5]nonan-7-yl)oxy)methyl)benzoic acid] | 4710 nM
8 | O=C(O)c1ccc(N2CCC3(C=C(c4c(-c5ccccc5Cl)noc4C4CC4)C3)CC2)cc1 [Example 14, 4-(2-(3-(2-Chlorophenyl)-5-cyclopropylisoxazol-4-yl)-7-azaspiro[3.5]non-1-en-7-yl)benzoic acid] | 885 nM
9 | Cn1cc(C(=O)O)c2cnc(N3CCC4(C=C(c5c(-c6c(Cl)cccc6Cl)noc5C5CC5)C4)CC3)nc21 [Example 6, 2-(2-(5-Cyclopropyl-3-(2,6-dichlorophenyl)isoxazol-4-yl)-7-azaspiro[3.5]non-1-en-7-yl)-7-methyl-7H-pyrrolo[2,3-d]pyrimidine-5-carboxylic acid] | 47 nM
10 | CS(=O)(=O)NC(=O)c1cc(OC(F)F)c2cc(N3CCC4(C=C(c5c(-c6ncccc6Cl)noc5C5CC5)C4)CC3)ccc2n1 [Example 190, 6-(2-(3-(3-Chloropyridin-2-yl)-5-cyclopropylisoxazol-4-yl)-7-azaspiro[3.5]non-1-en-7-yl)-4-(difluoromethoxy)-N-(methylsulfonyl)quinoline-2-carboxamide] | 168 nM
11 | O=C(O)c1ccc(N2CCC3(C=C(c4c(-c5c(Cl)cc(F)cc5Cl)noc4C4CC4)C3)CC2)nc1 [Example 67, 6-(2-(5-Cyclopropyl-3-(2,6-dichloro-4-fluorophenyl)isoxazol-4-yl)-7-azaspiro[3.5]non-1-en-7-yl)nicotinic acid] | 493 nM
12 | CS(=O)(=O)NC(=O)c1cc(OC(F)F)c2cc(N3CCC4(C=C(c5c(-c6c(Cl)cncc6Cl)noc5C5CC5)C4)CC3)ccc2n1 [Example 185, 6-(2-(5-Cyclopropyl-3-(3,5-dichloropyridin-4-yl)isoxazol-4-yl)-7-azaspiro[3.5]non-1-en-7-yl)-4-(difluoromethoxy)-N-(methylsulfonyl)quinoline-2-carboxamide] | 16 nM
13 | Cc1cc(N2CCC3(C=C(c4c(-c5c(Cl)cccc5Cl)noc4C4CC4)C3)CC2)ncc1C(=O)O [Example 115, 6-(2-(5-Cyclopropyl-3-(2,6-dichlorophenyl)isoxazol-4-yl)-7-azaspiro[3.5]non-1-en-7-yl)-4-methylnicotinic acid] | 132 nM
14 | O=C(O)c1ccc2nc(N3CCC4(C=C(c5c(-c6c(Cl)cccc6Cl)noc5C5CC5)C4)CC3)cnc2c1 [Example 100, 2-(2-(5-cyclopropyl-3-(2,6-dichlorophenyl)isoxazol-4-yl)-7-azaspiro[3.5]non-1-en-7-yl)quinoxaline-6-carboxylic acid] | 33 nM
15 | NC(=O)c1cc(F)c2nc(N3CCC4(C=C(c5c(-c6c(Cl)cncc6Cl)noc5C5CC5)C4)CC3)sc2c1 [Example 202, 2-(2-(5-Cyclopropyl-3-(3,5-dichloropyridin-4-yl)isoxazol-4-yl)-7-azaspiro[3.5]non-1-en-7-yl)-4-fluorobenzo[d]thiazole-6-carboxamide] | 155 nM
16 | O=C(O)c1ccc2cc(OC3CCC4(C=C(c5c(-c6c(Cl)cccc6Cl)noc5C5CC5)C4)CC3)ccc2n1 (centres unmarked) [Example 210, 6-((2-(5-Cyclopropyl-3-(2,6-dichlorophenyl)isoxazol-4-yl)spiro[3.5]non-1-en-7-yl)oxy)quinoline-2-carboxylic acid] | 485 nM
17 | COc1ccc(C(=O)O)c2ccc(N3CCC4(C=C(c5c(-c6c(Cl)cncc6Cl)noc5C5CC5)C4)CC3)nc12 [Example 64, 2-(2-(5-Cyclopropyl-3-(3,5-dichloropyridin-4-yl)isoxazol-4-yl)-7-azaspiro[3.5]non-1-en-7-yl)-8-methoxyquinoline-5-carboxylic acid] | 49 nM
18 | O=C(O)CNC(=O)c1cc(F)c2nc(N3CCC4(C=C(c5c(-c6ccccc6C(F)(F)F)noc5C5CC5)C4)CC3)sc2c1 [Example 32, (2-(2-(5-Cyclopropyl-3-(2-(trifluoromethyl)phenyl)isoxazol-4-yl)-7-azaspiro[3.5]non-1-en-7-yl)-4-fluorobenzo[d]thiazole-6-carbonyl)glycine] | 1500 nM
19 | O=C(O)c1cnc(N2CCC3(C=C(c4c(-c5c(Cl)cccc5Cl)noc4C4CC4)C3)CC2)cc1C(F)(F)F [Example 116, 6-(2-(5-Cyclopropyl-3-(2,6-dichlorophenyl)isoxazol-4-yl)-7-azaspiro[3.5]non-1-en-7-yl)-4-(trifluoromethyl)nicotinic acid] | 135 nM
20 | O=C(O)c1cc(C(F)(F)F)c2cc(N3CCC4(C=C(c5c(-c6ccc(F)cc6Cl)noc5C5CC5)C4)CC3)ccc2n1 [Example 96, 6-(2-(3-(2-Chloro-4-fluorophenyl)-5-cyclopropylisoxazol-4-yl)-7-azaspiro[3.5]non-1-en-7-yl)-4-(trifluoromethyl)quinoline-2-carboxylic acid] | 869 nM
21 | Cc1cc(C(=O)O)cc2sc(N3CCC4(C=C(c5c(-c6c(Cl)cncc6Cl)noc5C5CC5)C4)CC3)nc12 [Example 61, 2-(2-(5-Cyclopropyl-3-(3,5-dichloropyridin-4-yl)isoxazol-4-yl)-7-azaspiro[3.5]non-1-en-7-yl)-4-methylbenzo[d]thiazole-6-carboxylic acid] | 7.2 nM
22 | O=C(O)c1cc2ccc(N3CCC4(C=C(c5c(-c6c(Cl)cccc6Cl)noc5C5CC5)C4)CC3)cc2cn1 [Example 129, 7-(2-(5-Cyclopropyl-3-(2,6-dichlorophenyl)isoxazol-4-yl)-7-azaspiro[3.5]non-1-en-7-yl)isoquinoline-3-carboxylic acid] | 341 nM
23 | Cn1c(N2CCC3(C=C(c4c(-c5c(Cl)cccc5Cl)noc4C4CC4)C3)CC2)nc2cc(C(=O)O)ccc21 [Example 25, 2-(2-(5-Cyclopropyl-3-(2,6-dichlorophenyl)isoxazol-4-yl)-7-azaspiro[3.5]non-1-en-7-yl)-1-methyl-1H-benzo[d]imidazole-5-carboxylic acid] | 1020 nM
